Experimental data published in patent US20200030269A1, “ANIMAL FEED COMPOSITIONS OF ABSCISIC ACID” (Valent BioSciences LLC, priority 2010, published 2020).
Values joined by “and” are separate entries in the source; they are usually repeats but may differ in a detail not shown here. Equal entries are not always repeated.

Experiments:
Format in all cases: in vivo
Male Cobb 500 chickens [1] = experiment: Example 1 broiler feeding study: bird weights and feed conversion ratios; details: for Adjusted Feed/Gain Ratio, mean / Bird Weight, mean / Feed/Gain Ratio, mean: 5 ppm S-ABA in feed, dirty litter
Experimental: (§1) Male Cobb 500 chickens were fed different levels of S-ABA supplemented into starter, grower, and finisher feed diets for their entire 42 day commercial life cycle. On day 43, samples of chickens (sometimes referred to as “birds”) from each treatment were processed.
(§2) The starter, grower, and finisher basal diets represented standard commercial broiler diets. The starter and grower diets contained Salinomycin (a coccidiostat) at 40 grams/ton. The basal diets and final treatment diets were prepared using a 500 or 4,000 pound capacity vertical mixer or a 14,000 pound capacity horizontal mixer. After correcting for percent purity of S-ABA in the S-ABA dry powder, S-ABA was added to the basal diets at concentrations of 5, 50, or 500 ppm (4.6, 46, or 455 grams of S-ABA/ton). Control treatments included (1) commercial diet only and (2) commercial diet supplemented with antibiotics (bacitracin methylene disalicylate (BMD), and STAFAC® virginiamycin (hereinafter “Stafac”). STAFAC is a registered trademark of Phibro Animal Health Corporation). All feed diets were pelleted at ˜65° C. or below.
(§3) A 90-pen test facility was divided into 10 blocks containing 9 pens per block. Treatments were assigned to the pens using a complete randomized block design. Birds were assigned to the pens randomly. Specific treatment groups were as follows:
Feed was provided ad libitum throughout the study via one handing, ˜17-inch diameter tube feeder per pen. Chick feeder trays were placed in each pen for approximately the first 4 days. Feed added and removed from pens was weighed and recorded from day 0 to day 42. Diet changes were conducted at the same time for all pens. The feeding period for each diet was as shown below:
Birds were weighed by pen at 0, 7, 14, 21, 28, 35, and 42 days of age. The feed remaining in each pen was weighed and recorded on study day 0, 7, 14, 21, 28, 35, and 42 days of age. The feed intake during days 0-7, 0-14, 0-21, 0-28, 0-35, and 0-42 was calculated.
Performance data was summarized by average weight per bird at each body weights measurement period. The average feed conversion was calculated for each respective body weight period using the total feed consumption in a pen divided by the total weight of surviving birds (i.e. days 0-7, 0-14, 0-21, etc.). Adjusted feed conversion was calculated using the total feed consumption in a pen divided by the total weight of surviving birds and weight of birds that died or were removed from that pen.

Male Cobb 500 chickens [2] = experiment: Example 1 broiler feeding study: digestive tract weights at processing on day 43; details: for Digestive Tract Weights, Mean Weight: dirty litter, day 43
Experimental: as §1, §2, §3
Four blocks (9 pens/block) were selected at random from each treatment. On day 42 all birds in the selected blocks were individually wing banded with a unique number. Prior to processing the birds were fasted for approximately 12 hours. Immediately after processing on day 43, digestive tract weights and Bursa of Fabricius organ weights were measured.

[3] = tested on: Male and female Cobb 500 chickens; experiment: Example 2 broiler feeding study: cumulative bird mortality after 42 days
Experimental: Male and female Cobb 500 chickens were fed different levels of S-ABA supplemented into starter, grower, and finisher feed diets for their entire 42 days commercial life cycle.
The starter, grower, and finisher basal diets represented standard commercial broiler diets. The starter and grower diets contained Salinomycin (a coccidiostat) at 40 grams/ton. The basal diets and final treatment diets were prepared using a 500 or 4,000 pound capacity vertical mixer or a 14,000 pound capacity horizontal mixer. After correcting for percent purity of S-ABA in the S-ABA dry powder, S-ABA was added to the basal diets at concentrations of 2.5, 5.0, or 7.5 ppm (2.3, 4.6, or 6.8 grams of S-ABA/ton). Control treatments included (1) commercial diet only and (2) commercial diet supplemented with antibiotics (bacitracin methylene disalicylate and Stafac). All feed diets were pelleted at ˜65° C. or below.
A 108-pen test facility was divided into 18 blocks containing 6 pens per block. Treatments were assigned to the pens using a complete randomized block design. Birds were assigned to the pens randomly. Specific treatment groups were as follows:
(§4) Starting on study day 0, any bird found dead or needing to be removed and sacrificed was weighed and necropsied. The probable cause of death and necropsy findings were recorded.

Male Cobb 500 chickens [4] = experiment: Example 1 broiler feeding study: cumulative bird mortality after 42 days
Experimental: as §1, §2, §3, §4

[5] = 5 ppm S-ABA in commercial feed diet versus control 1
[6] = commercial feed diet plus 5 ppm S-ABA, dirty litter, 42 days

## CC1=CC(=O)CC(C)(C)[C@@]1(O)/C=C/C(C)=C\C(=O)O [S-ABA, (S)-(+)-abscisic acid]
Male Cobb 500 chickens [1]; 5 ppm S-ABA in commercial feed
  bird growth (weights) compared to the commercial feed diet (control 1): increased bird growth (weights)
Male Cobb 500 chickens [1]; [5]
  lowering of adjusted feed conversion ratios (corrected for number of surviving birds): 1-2 points
  reduction of feed conversion ratios: 1-4 points
Male Cobb 500 chickens [1]; Day 7
  Adjusted Feed/Gain Ratio, mean: 1.4093
  Bird Weight, mean: 0.1445 kg
  Feed/Gain Ratio, mean: 1.4093
Male Cobb 500 chickens [1]; Day 14
  Adjusted Feed/Gain Ratio, mean: 1.2854
  Bird Weight, mean: 0.3873 kg
  Feed/Gain Ratio, mean: 1.3400
Male Cobb 500 chickens [1]; Day 21
  Adjusted Feed/Gain Ratio, mean: 1.3842
  Bird Weight, mean: 0.7899 kg
  Feed/Gain Ratio, mean: 1.4137
Male Cobb 500 chickens [1]; Day 28
  Adjusted Feed/Gain Ratio, mean: 1.4517
  Bird Weight, mean: 1.4236 kg
  Feed/Gain Ratio, mean: 1.4584
Male Cobb 500 chickens [1]; Day 35
  Adjusted Feed/Gain Ratio, mean: 1.5610
  Bird Weight, mean: 2.0919 kg
  Feed/Gain Ratio, mean: 1.5731
Male Cobb 500 chickens [1]; Day 42
  Adjusted Feed/Gain Ratio, mean: 1.6691
  Bird Weight, mean: 2.7565 kg
  Feed/Gain Ratio, mean: 1.6861
Male Cobb 500 chickens [2]; S-ABA in the feed diet
  weight of digestive tracts compared to the commercial feed diets (control 1 and control 2): increases the weight of digestive tracts
Male Cobb 500 chickens [2]; commercial feed diet plus 5 ppm S-ABA
  Digestive Tract Weights, Mean Weight: 86.7 Grams
Male Cobb 500 chickens [2]; commercial feed diet plus 50 ppm S-ABA
  Digestive Tract Weights, Mean Weight: 86.6 Grams
Male Cobb 500 chickens [2]; commercial feed diet plus 500 ppm S-ABA
  Digestive Tract Weights, Mean Weight: 88.4 Grams
[3]; ABA added to commercial feed diets, 42 days
  survival rates compared to the commercial feed diet containing bacitracin methylene disalicylate and Stafac: higher survival rates
[3]; S-ABA 2.5 ppm in feed, Female, dirty litter
  Cumulative Bird Mortality After 42 Days: Mortality: 2.4%
[3]; S-ABA 2.5 ppm in feed, Male, dirty litter
  Cumulative Bird Mortality After 42 Days: Mortality: 4.1%
[3]; S-ABA 5.0 ppm in feed, Female, dirty litter (two treatment groups)
  Cumulative Bird Mortality After 42 Days: Mortality: 0.4% and 1.9%
[3]; S-ABA 5.0 ppm in feed, Male, dirty litter (two treatment groups)
  Cumulative Bird Mortality After 42 Days: Mortality: 2.9% and 3.5%
[3]; S-ABA 7.5 ppm in feed, Female, dirty litter
  Cumulative Bird Mortality After 42 Days: Mortality: 2.2%
[3]; S-ABA 7.5 ppm in feed, Male, dirty litter
  Cumulative Bird Mortality After 42 Days: Mortality: 3.8%
Male Cobb 500 chickens [4]; 5 ppm S-ABA in commercial feed diets, versus control 1 and BMD/Stafac control 2
  bird mortality compared to the control treatments: significantly (P=0.05) lower bird mortality
Male Cobb 500 chickens [4]; [6]
  Cumulative Bird Mortality After 42 Days: Died: 0
  Cumulative Bird Mortality After 42 Days: Lived: 200
